According to ChEMBL document CHEMBL5154680, “Seco and Nor-seco Isodhilarane-Type Meroterpenoids from Penicillium purpurogenum and the Configuration Revisions of Related Compounds” (J Nat Prod, 2022):
Calls of active or inactive are those of the source. The rule behind the calls is not given here.

Columns and labels:
Assay type in all cases: functional, cell-based
HepG2 [1] = assay: Hepatoprotective activity against APAP-induced toxicity in human HepG2 cells assessed as cell survival rate at 10 uM incubated for 48 hrs by MTT assay
A549 = assay: Cytotoxicity against human A549 cells assessed as reduction in cell viability incubated for 24 hrs by MTT assay; settings: A549, 24 h
HepG2 [2] = assay: Cytotoxicity against human HepG2 cells assessed as reduction in cell viability incubated for 24 hrs by MTT assay; settings: HepG2, 24 h

Row | SMILES | Activity (HepG2 [1]) | IC50 (A549) | IC50 (HepG2 [2])
1 | C[C@H]1O[C@@H]2OC(=O)[C@]3(C)C[C@@H]4[C@](C)(C(=O)C=C5C(=CC(=O)OC5(C)C)[C@@]45CO5)[C@H](C1=O)[C@H]23 | Active |  | 
2 | C[C@H]1O[C@@H]2OC(=O)[C@]3(C)C[C@@H]4[C@@]5(C)C(=C1O[C@H]5C=C1C(=CC(=O)OC1(C)C)[C@@]41CO1)[C@]23O | Active |  | 
3 | COC(=O)[C@]12C(=O)[C@@H](C)O[C@@H]3OC(=O)[C@](C)(C[C@H]4[C@]5(CO5)C5=CC(=O)OC(C)(C)C5=CC[C@@]41C)[C@@H]32 | Active |  | 
4 | C[C@H]1O[C@@H]2OC(=O)[C@]3(C)C[C@@H]4[C@](C)(C(=O)C=C5C(=CC(=O)OC5(C)C)[C@@]45CO5)[C@H](C1=O)[C@]23O |  | 6.8 µM | 5.58 µM
5 | COC(=O)[C@]12C(=O)[C@@H](C)O[C@@H]3OC(=O)[C@](C)(C[C@@H]4[C@]1(C)CC=C1C(=CC(=O)OC1(C)C)[C@@]4(C)O)[C@@H]32 | Active |  | 
6 | COC(=O)[C@]12C(=O)[C@@H](C)O[C@@H]3OC(=O)[C@](C)(C[C@H]4[C@]5(CO5)C5=CC(=O)OC(C)(C)[C@]56O[C@@H]6C[C@@]41C)[C@@H]32 | Active |  | 
